The results in this text go back to ChEMBL document CHEMBL1221263, “Preliminary studies of 3,4-dichloroaniline amides as antiparasitic agents: structure-activity analysis of a compound library in vitro against Trichomonas vaginalis” (Bioorg Med Chem Lett, 2010).

Each structure is given as a SMILES string. Bounds are passed on as bounds.

Assay [1] has as its system Trichomonas vaginalis. The assay can be described thus: Antiparasitic activity against Trichomonas vaginalis T1 at 100 uM after 24 hrs by hemocytometric analysis. The format is functional. The following applies: T1, 24 h.
In assay [2] the test system is Trichomonas vaginalis. The assay can be described thus: Antiparasitic activity against Trichomonas vaginalis G3 at 100 uM after 24 hrs by hemocytometric analysis. The format is functional. The conditions noted are these: G3, 24 h.
In assay [3] the test system is Trichomonas vaginalis. Kind of assay: Antiparasitic activity against Trichomonas vaginalis T1 after 24 hrs by hemocytometric analysis. The following applies: T1, 24 h. The format is functional, organism-based.
Assay [4] concerns Trichomonas vaginalis. Kind of assay: Antiparasitic activity against Trichomonas vaginalis G3 after 24 hrs by hemocytometric analysis. The format is functional. The conditions noted are these: G3, 24 h.
Assay [5] is described as follows: Cytotoxicity against human CFU-GM cells. It counts as cell-based.
The nature of assay [6]: Cytotoxicity against human erythroid progenitor cells. The format is cell-based.

Broadly, the inhibition is the change of the read-out against control, counted positive when it falls. By IC50 is commonly meant the concentration that gives 50% inhibition. Read a high IC50 as a need for much substance.

In the case of `O=C(Nc1ccc(Cl)c(Cl)c1)c1ccc(Cl)cc1`, the inhibition at 100 µM with Trichomonas vaginalis [1] came to 46%; in the assay with Trichomonas vaginalis [2], 28%.

Take `O=Cc1ccc(-c2ccc(Cl)cc2[N+](=O)[O-])o1`: the inhibition at 100 µM in the assay with Trichomonas vaginalis [1] was determined as 59%; in the assay with Trichomonas vaginalis [2], 46%.

Turning to `COc1ccc(C(=O)Nc2ccc(Cl)c(Cl)c2)cc1`, the inhibition at 100 µM with Trichomonas vaginalis [1] turned out to be 22%; in the assay with Trichomonas vaginalis [2] it was 13%.

Take `O=C(Nc1ccc(Cl)c(Cl)c1)c1cccc2ccccc12`: the values for the inhibition at 100 µM with Trichomonas vaginalis [1] and in the assay on Trichomonas vaginalis [2] were 49% and 37%, respectively.

Take `COc1ccc(NC(=O)C2CCCCC2)cc1OC`: the inhibition at 100 µM with Trichomonas vaginalis [1] was 34%; in the assay on Trichomonas vaginalis [2], 10%.

For the compound `COc1ccc(-c2ccccc2)cc1NC(=O)C1CCCCC1`, the inhibition at 100 µM with Trichomonas vaginalis [1] came to 36%; with Trichomonas vaginalis [2], 28%.

For the compound `O=C(Nc1ccc(Cl)c(Cl)c1)C12CC3CC(CC(C3)C1)C2`, the inhibition at 100 µM in the assay on Trichomonas vaginalis [1] came to 0%; in the assay on Trichomonas vaginalis [2], 19%.

Consider `O=C(Nc1ccc(Cl)c(Cl)c1)c1cccc([N+](=O)[O-])c1`, for which the inhibition at 100 µM in the assay with Trichomonas vaginalis [1] was determined as 22%; in the assay with Trichomonas vaginalis [2], 51%.

As for `O=C(Nc1ccc(O)cc1)C1CCCCC1`, the inhibition at 100 µM in the assay with Trichomonas vaginalis [1] was found to be 25%; in the assay with Trichomonas vaginalis [2] it was 39%.

For the compound `O=C(Nc1ccc(Cl)c(Cl)c1)c1ccc([N+](=O)[O-])cc1`, the inhibition at 100 µM in the assay on Trichomonas vaginalis [1] is 44%; in the assay with Trichomonas vaginalis [2], 40%.

On to `O=C(Nc1ccc(Cl)c(Cl)c1)c1cccc(C(F)(F)F)c1`, for which the IC50 in the assay with Trichomonas vaginalis [3] was 77 µM; in the assay on Trichomonas vaginalis [4], 90 µM. The inhibition at 100 µM with Trichomonas vaginalis [1] was 69%; in the assay on Trichomonas vaginalis [2], 66%.

`O=C(Nc1ccc(Cl)c(Cl)c1)c1cccc(F)c1`: the inhibition at 100 µM in the assay with Trichomonas vaginalis [1] was 29%; in the assay on Trichomonas vaginalis [2], 61%.

Regarding `O=C(Nc1ccc(Cl)c(Cl)c1)c1cccc(Cl)c1`, the figures for the inhibition at 100 µM in the assay on Trichomonas vaginalis [1] and in the assay on Trichomonas vaginalis [2] were 19% and 70%, respectively.

For the compound `O=C(Nc1ccc(Cl)c(Cl)c1)c1ccc(Cl)cc1Cl`, the inhibition at 100 µM in the assay with Trichomonas vaginalis [1] was 38%; in the assay with Trichomonas vaginalis [2], 46%.

In the case of `O=C(Nc1ccc(Cl)c(Cl)c1)c1ccc(Cl)c(Cl)c1`, the inhibition at 100 µM worked out at 29% in the assay with Trichomonas vaginalis [1] and 55% in the assay with Trichomonas vaginalis [2].

As to `O=C(Nc1ccc(Cl)c(Cl)c1)C1CCCCC1`, the inhibition at 100 µM in the assay on Trichomonas vaginalis [1] stood at 62%; with Trichomonas vaginalis [2], 30%.

As for `O=C(Nc1ccc(Cl)c(Cl)c1)c1ccc(-c2ccccc2)cc1`, the inhibition at 100 µM in the assay on Trichomonas vaginalis [1] came out at 64%; in the assay with Trichomonas vaginalis [2] it was 24%.

As to `CC(=O)Nc1ccc(O)cc1` [ACETAMINOPHEN], the figures for the inhibition at 100 µM with Trichomonas vaginalis [1] and in the assay on Trichomonas vaginalis [2] were 17% and 14%, respectively.

With `O=C1C(Cl)=C(Cl)C(=O)C(Cl)=C1Cl` [CHLORANIL], the inhibition at 100 µM came out at 12% in the assay with Trichomonas vaginalis [1] and 40% in the assay on Trichomonas vaginalis [2].

In the case of `O=C1C=CC(=O)c2c(O)cccc21` [JUGLONE], the inhibition at 100 µM turned out to be 39% in the assay on Trichomonas vaginalis [1] and 49% in the assay on Trichomonas vaginalis [2].

As to `Cc1ncc([N+](=O)[O-])n1CCO` [METRONIDAZOLE], the IC50 in the assay on Trichomonas vaginalis [3] was determined as 0.72 µM; in the assay on Trichomonas vaginalis [4], 0.77 µM.

Turning to `CCC(=O)Nc1ccc(Cl)c(Cl)c1` [PROPANIL], the results for the IC50 (in assay [5]; in assay [6]; in the assay with Trichomonas vaginalis [3]) were above 500 µM, 305 µM and 120 µM, respectively. Besides, the inhibition at 100 µM came out at 29% with Trichomonas vaginalis [1] and 20% in the assay on Trichomonas vaginalis [2].
